Laboratory results from patent US11332430B1, “Pleuromulin lauric acid ester with antibacterial activity and a method of preparing the same” (priority 2021, dated 2022).

How the values were obtained:
MRSA-206 = assay: paper diffusion method drug sensitivity test, MRSA-206; format: cell-based, Staphylococcus aureus; details: 30 μg/tablet, 37° C., 24 h, ≥17 mm sensitive, 15-16 mm intermediary, ≤14 mm drug resistance
MRSA-575 = assay: paper diffusion method drug sensitivity test, MRSA-575; format: cell-based, Staphylococcus aureus; details: 30 μg/tablet, 37° C., 24 h, ≥17 mm sensitive, 15-16 mm intermediary, ≤14 mm drug resistance
Procedure: (§1) The antimicrobial efficacy was determined by a paper diffusion method drug sensitivity test.
(§2) Experimental strains: multi-resistant Staphylococcus aureus 171, multi-resistant Staphylococcus aureus 575, multi-resistant Staphylococcus aureus 596. The experimental strain was identified by Huashan Hospital Affiliated to Fudan University (Institute of Antibiotic of Fudan University).
(§3) Drug sensitive paper: The drug sensitive paper is a special drug sensitive paper with a diameter of 6.35 mm and a water absorption of 0.02 mL. The control was vancomycin (30 μg/tablet); the test compounds were pleuromulin (30 μg/tablet), lauric acid (30 μg/tablet) and pleuromulin lauric acid ester (30 μg/tablet).
(§4) The experimental strains were inoculated in non-selective medium and placed in air at 37° C. for 24 h. A single colony that grows well and inoculate it into broth medium was incubate at 35° C.±2° C. for 6 hours, and LA broth medium was used to calibrate the concentration of the bacterial solution to 0.5 Mie turbidimetric tube (1.5×10^8 CFU/mL). A bacterial suspension was obtained.
(§5) LB dry powder was weighed, sterilized at 103.4 Kpa, 121.3° C. high-pressure steam for 15 min, and then placed it in a 40° C.-50° C. water bath. A sterile empty plate (inner diameter 9 cm) was placed on the surface of the ultra-clean table water table, and […] was poured to the plate. The thickness of each plate was 3 mm to 4 mm. After the plate was cooled at room temperature, it was stored in the refrigerator at 2° C.-8° C. A sterile cotton swab was used to dip the bacterial solution and ti evenly coat the surface of the LB plate 3 times. After inoculation of the bacterial suspension, the LB plate was dried at room temperature for 3 min to 5 min. Sterile forceps were used to closely attach the antibacterial drug paper to the dish. The dish was put upside down and placed in a 37° C. incubator for 24 h. The results were observed by measuring the diameter. Taking 0.5% DMSO solution as a negative control, the antibacterial activity is expressed by the diameter of the inhibition zone. The inhibition zone ≥17 mm, sensitive; the inhibition zone of 15 mm-16 mm, intermediary; the inhibition zone ≤14 mm, drug resistance.

MRSA-596 = assay: paper diffusion method drug sensitivity test, MRSA-596; format: cell-based, Staphylococcus aureus; details: 30 μg/tablet, 37° C., 24 h, ≥17 mm sensitive, 15-16 mm intermediary, ≤14 mm drug resistance
Procedure: as §1, §2, §3, §4, §5

[1] = system: multi-drug resistant Staphylococcus aureus 206, 575, 596; assay: paper diffusion method drug sensitivity test, summary over the strains; format: cell-based; details: 30 μg/tablet
Procedure: as §1, §2, §3, §4, §5

[2] = listed as Pleuromutilin lauric acid derivative

Structure (SMILES) | Zone of inhibition (MRSA-206) [mm] | Zone of inhibition (MRSA-575) [mm] | Zone of inhibition (MRSA-575; [2]) | Zone of inhibition (MRSA-596) [mm] | inhibitory effect on drug-resistant bacteria (in words) [1] | inhibitory effect on drug-resistant bacteria (in words) [1, 2]
C=C[C@]1(C)C[C@@H](OC(=O)COC(=O)CCCCCCCCCCC)[C@]2(C)CC[C@@H](C)[C@@]3(CCC(=O)[C@@H]23)[C@@H](C)[C@@H]1O [Pleuromulinlauric acid ester, 2-(((3aS,4R,5S,6S,8R,9R,9aR,12R)-5-hydroxy-4,6,9,12-tetramethyl-1-oxo-6-vinyldecahydro-3a,9-propanocyclopenta[8]annulen-8-yl)oxy)-2-oxoethyl Dodecanoate] | 13 | 25 | up to 25 mm | 12 | excellent antibacterial activity | strong inhibitory effects
CN[C@H](CC(C)C)C(=O)N[C@H]1C(=O)N[C@@H](CC(N)=O)C(=O)N[C@H]2C(=O)N[C@H]3C(=O)N[C@H](C(=O)N[C@H](C(=O)O)c4cc(O)cc(O)c4-c4cc3ccc4O)[C@H](O)c3ccc(c(Cl)c3)Oc3cc2cc(c3O[C@@H]2O[C@H](CO)[C@@H](O)[C@H](O)[C@H]2O[C@H]2C[C@](C)(N)[C@H](O)[C@H](C)O2)Oc2ccc(cc2Cl)[C@H]1O [Vancomycin] | 15 | 17 |  | 23 |  | 
CCCCCCCCCCCC(=O)O [Laurie acid, Lauric acid] | 0 | 0 |  | 0 | no inhibitory effect | 
C=C[C@]1(C)C[C@@H](OC(=O)CO)[C@]2(C)[C@H](C)CC[C@]3(CCC(=O)[C@H]32)[C@@H](C)[C@@H]1O [Pleuromulin] | 0 | 0 |  | 0 | no inhibitory effect | 
